Experimental data taken from PubChem BioAssay AID1845195 (Molecular Pharmacology Branch, DTP, NCI, 2023).

System: 156681-154-R-J1 tumor spheroid viability
Assay: Anticancer human tumor 156681-154-R-J1 patient-derived melanoma cell line growth inhibition
Conditions: spheroids with HUVEC and MSC; for IC50: curve of first compound; for viability, T/C: stronger effect = lower value
Method in brief: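 Complex tumor spheroids combined malignant cells with endothelial cells and mesenchymal stem cells. DNA-damaging drugs and DNA repair inhibitors were tested alone and in combination, at half-log dilutions down from clinical Cmax (top 10 microM if Cmax unknown), 0.25% DMSO final.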
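Further: spheroids exposed to compounds for 7 days before readout.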
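Wherever viability, T/C is given: percent of vehicle control viability where 100% = DMSO-treated spheroids.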

CC(C)n1c(=O)n(C)c2cnc3cc(F)c(-c4ccc(OCCCN5CCCCC5)nc4)cc3c21 + Cn1nnc2c(C(N)=O)ncn2c1=O
IC50 (second compound 1 µM): > 10 µM
IC50 (second compound 3.16 µM): > 10 µM
IC50 (second compound 10 µM): > 10 µM
IC50 (second compound 31.6 µM): < 0.0316 µM
IC50 (second compound 100 µM): < 0.0316 µM
viability, T/C (second compound 1 µM, first compound 0.0316 µM): 116%
viability, T/C (second compound 1 µM, first compound 0.1 µM): 122%
viability, T/C (second compound 1 µM, first compound 0.316 µM): 110%
viability, T/C (second compound 1 µM, first compound 1 µM): 104%
viability, T/C (second compound 1 µM, first compound 3.16 µM): 108%
viability, T/C (second compound 1 µM, first compound 10 µM): 95.1%
viability, T/C (second compound 3.16 µM, first compound 0.0316 µM): 85.2%
viability, T/C (second compound 3.16 µM, first compound 0.1 µM): 83%
viability, T/C (second compound 3.16 µM, first compound 0.316 µM): 111%
viability, T/C (second compound 3.16 µM, first compound 1 µM): 123%
viability, T/C (second compound 3.16 µM, first compound 3.16 µM): 98.9%
viability, T/C (second compound 3.16 µM, first compound 10 µM): 71.4%
viability, T/C (second compound 10 µM, first compound 0.0316 µM): 78.5%
viability, T/C (second compound 10 µM, first compound 0.1 µM): 63.5%
viability, T/C (second compound 10 µM, first compound 0.316 µM): 70.8%
viability, T/C (second compound 10 µM, first compound 1 µM): 72.4%
viability, T/C (second compound 10 µM, first compound 3.16 µM): 75.5%
viability, T/C (second compound 10 µM, first compound 10 µM): 64.1%
viability, T/C (second compound 31.6 µM, first compound 0.0316 µM): 47.2%
viability, T/C (second compound 31.6 µM, first compound 0.1 µM): 54.5%
viability, T/C (second compound 31.6 µM, first compound 0.316 µM): 53%
viability, T/C (second compound 31.6 µM, first compound 1 µM): 48.3%
viability, T/C (second compound 31.6 µM, first compound 3.16 µM): 52%
viability, T/C (second compound 31.6 µM, first compound 10 µM): 55.8%
viability, T/C (second compound 100 µM, first compound 0.0316 µM): 51.9%
viability, T/C (second compound 100 µM, first compound 0.1 µM): 43.3%
viability, T/C (second compound 100 µM, first compound 0.316 µM): 46.8%
viability, T/C (second compound 100 µM, first compound 1 µM): 48.2%
viability, T/C (second compound 100 µM, first compound 3.16 µM): 49.5%
viability, T/C (second compound 100 µM, first compound 10 µM): 43.4%

COc1ccc([C@@H](O)c2cc(-c3ncnc4cc(N5CCOCC5)ccc34)c(F)cc2Cl)nn1 + COc1cc2c(cc1O)CCNC21CSC2c3c(OC(C)=O)c(C)c4c(c3C(COC1=O)N1C(O)C3Cc5cc(C)c(OC)c(O)c5C(C21)N3C)OCO4
IC50 (second compound 30 pM): 9.85 µM
IC50 (second compound 94.9 pM): 5.11 µM
IC50 (second compound 0.0003 µM): 0.427 µM
IC50 (second compound 0.000949 µM): < 0.0316 µM
IC50 (second compound 0.003 µM): < 0.0316 µM
viability, T/C (second compound 30 pM, first compound 0.0316 µM): 118%
viability, T/C (second compound 30 pM, first compound 0.1 µM): 107%
viability, T/C (second compound 30 pM, first compound 0.316 µM): 88.5%
viability, T/C (second compound 30 pM, first compound 1 µM): 84.7%
viability, T/C (second compound 30 pM, first compound 3.16 µM): 64%
viability, T/C (second compound 30 pM, first compound 10 µM): 49.5%
viability, T/C (second compound 94.9 pM, first compound 0.0316 µM): 108%
viability, T/C (second compound 94.9 pM, first compound 0.1 µM): 92%
viability, T/C (second compound 94.9 pM, first compound 0.316 µM): 89.9%
viability, T/C (second compound 94.9 pM, first compound 1 µM): 69.5%
viability, T/C (second compound 94.9 pM, first compound 3.16 µM): 55.9%
viability, T/C (second compound 94.9 pM, first compound 10 µM): 41.5%
viability, T/C (second compound 0.0003 µM, first compound 0.0316 µM): 83.5%
viability, T/C (second compound 0.0003 µM, first compound 0.1 µM): 79.5%
viability, T/C (second compound 0.0003 µM, first compound 0.316 µM): 54.1%
viability, T/C (second compound 0.0003 µM, first compound 1 µM): 32.4%
viability, T/C (second compound 0.0003 µM, first compound 3.16 µM): 4.29%
viability, T/C (second compound 0.0003 µM, first compound 10 µM): 0.28%
viability, T/C (second compound 0.000949 µM, first compound 0.0316 µM): 5.23%
viability, T/C (second compound 0.000949 µM, first compound 0.1 µM): 2.87%
viability, T/C (second compound 0.000949 µM, first compound 0.316 µM): 0.68%
viability, T/C (second compound 0.000949 µM, first compound 1 µM): 0.1%
viability, T/C (second compound 0.000949 µM, first compound 3.16 µM): 0.07%
viability, T/C (second compound 0.000949 µM, first compound 10 µM): 0.18%
viability, T/C (second compound 0.003 µM, first compound 0.0316 µM): 0.27%
viability, T/C (second compound 0.003 µM, first compound 0.1 µM): 0.3%
viability, T/C (second compound 0.003 µM, first compound 0.316 µM): 0.22%
viability, T/C (second compound 0.003 µM, first compound 1 µM): 0.18%
viability, T/C (second compound 0.003 µM, first compound 3.16 µM): 0.16%
viability, T/C (second compound 0.003 µM, first compound 10 µM): 0.28%
